Laboratory results taken from PubChem BioAssay AID434987 (Southern Research Specialized Biocontainment Screening …, 2010).
Activity calls are given as the source filed them. How the calls were made is not given here.

Tested on: M. tuberculosis H37Rv growth inhibition with meropenem
Experiment: dose response, H37Rv, with and without meropenem (AID 434987);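 further: growth over 7 days at 37 °C before Alamar Blue read on day 9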
[1] = M. tuberculosis H37Rv growth inhibition, measured here: IC50 without meropenem
[2] = M. tuberculosis H37Rv growth inhibition, measured here: IC90 without meropenem
[3] = measured here: IC90 with meropenem

| Structure (SMILES) | IC50 | IC50 [1] | IC90 [2] | IC90 [3] |
| --- | --- | --- | --- | --- |
| COc1ccc(Nc2cc(C(=O)NCc3ccco3)c3ccccc3n2)c(OC)c1 | > 100 µM (inactive) | > 100 µM | > 100 µM | > 100 µM |
| C/C(=N/NC(=O)c1cccs1)c1ccc(NC(=O)COc2ccc(Cl)cc2)cc1 | > 100 µM (inactive) | > 100 µM | > 100 µM | > 100 µM |
| Cc1cc(=O)n2c(-c3ccccc3C)n[nH]c2n1 | 51 µM (inactive) | 62.4 µM | > 100 µM | > 100 µM |
| COc1ccc(-c2cc(-c3ccc(OC)cc3)nc(-c3ccc4c(c3)NC(=O)CO4)c2)cc1 | > 100 µM (inactive) | > 100 µM | > 100 µM | > 100 µM |
| CCC(=O)c1ccc(OCc2ccc(C(=O)OC)cc2)c(OC)c1 | 27.9 µM | > 100 µM | > 100 µM | > 100 µM |
| CCc1ccc(NC(=O)c2c(Cl)nc(C)c(Cl)c2C)cc1 | 7.1 µM | > 100 µM | > 100 µM | > 100 µM |
| COc1ccc(/C=N/Nc2nc(-c3ccc(C)cc3)c(NC(C)=O)s2)cc1 | 24.2 µM | > 100 µM | > 100 µM | > 100 µM |
| O=C(N/N=C/c1c(Cl)cccc1Cl)c1cccc(F)c1 | > 100 µM (inactive) | > 100 µM | > 100 µM | > 100 µM |
| CCc1cc(C(=O)O)c(NC(=O)/C=C/c2ccc(OC)cc2)s1 | 8.76 µM | 21.5 µM | > 100 µM | 59.7 µM |
| O=c1[nH]c(=S)[nH]c(O)c1N=Nc1ccc2c(c1)OCCO2 | > 100 µM (inactive) | > 100 µM | > 100 µM | > 100 µM |
| COc1ccccc1N(C)S(=O)(=O)c1ccc(C(=O)OCC(=O)N2CCCCCC2)cc1 | > 50 µM (inactive) | > 100 µM | > 100 µM | > 50 µM |
| O=C1OC(/C=C/c2ccccc2)=NC/1=C/c1ccco1 | 0.691 µM | 3.11 µM | 13 µM | 13.9 µM |
| COc1ccc(NC(=O)CCc2ccccc2)cc1NC(=O)c1ccco1 | > 100 µM (inactive) | > 100 µM | > 100 µM | > 100 µM |
| CCN(CC)CCCNC(=O)c1c(O)c2ccccc2n(Cc2ccccc2)c1=O | 12.6 µM (inactive) | 23.2 µM | 32.7 µM | 13.8 µM |
| CCOC(=O)c1cc(C(=O)OCC)cc(-n2cc(O)c(C(=O)OCC)n2)c1 | > 100 µM (inactive) | > 100 µM | > 100 µM | > 100 µM |
| CCn1c(O)c(/C=N/NC(=O)c2ccccc2)c(=O)n(CC)c1=S | 16.2 µM | > 100 µM | > 100 µM | > 100 µM |
| CCOC(=O)Cc1nc2ccccc2[nH]1 | 15.3 µM | 49.6 µM | > 100 µM | > 100 µM |
| Clc1ccc(CSc2ccc(-c3cccnc3)nn2)cc1 | 40.1 µM | > 100 µM | > 100 µM | > 100 µM |
| COc1ccc(Cl)cc1NC(=O)NNC(=O)c1ccccn1 | 41.1 µM (inactive) | > 100 µM | > 100 µM | > 100 µM |

| Structure (SMILES) | IC50 | IC50 [1] | IC90 [2] | IC90 [3] |
| --- | --- | --- | --- | --- |
| O=C1C2CCN(CC2)C1Cc1ccc(OCCOc2ccccc2)cc1 (stereo not drawn) | > 100 µM (inactive) | > 100 µM | > 100 µM | > 100 µM |
| CC(C)(C)NCCCOc1ccc(Cl)cc1C(C)(C)C | 24.8 µM (inactive) | 45.9 µM | 51.6 µM | 26.9 µM |
| N#C/C(=C(/O)COC(=O)CCc1ccc(S(=O)(=O)N2CCOCC2)cc1)c1nc2ccccc2[nH]1 | 46.4 µM (inactive) | > 100 µM | > 100 µM | > 100 µM |
| O=C(CCSc1ccccc1)Nc1nc2c(s1)CCCC2 | > 100 µM (inactive) | > 100 µM | > 100 µM | > 100 µM |
| Cc1ccc(C(=O)NN2C(=O)/C(=C/c3cccn3C)SC2=S)cc1 | > 100 µM (inactive) | > 100 µM | > 100 µM | > 100 µM |
| CCOC(=O)C(=CNc1ccc2c(c1)c1ccccc1n2CC)C(=O)OCC | 15.2 µM | > 100 µM | > 100 µM | > 25 µM |
| Cn1nnnc1Sc1ncnc2scc(-c3ccc(C(F)(F)F)cc3)c12 | 6.75 µM (inactive) | 14.3 µM | 24.4 µM | 15 µM |
| CCNC(=O)CCn1nc(-c2ccc(Cl)cc2)c2ccccc2c1=O | 23.6 µM | > 100 µM | > 100 µM | > 100 µM |
| COC(=O)c1cc(OC)c(OC)cc1NC(=O)c1ccc(OC)c(OC)c1 | 31.8 µM | > 100 µM | > 100 µM | > 100 µM |
| CN(C)CC[C@@H](c1ccc(Br)cc1)c1ccccn1 | > 100 µM (inactive) | > 100 µM | > 100 µM | > 100 µM |
| CC/C(=N\NC(=S)NC(C)C)c1ccc(OC)c(OC)c1 | 12.9 µM (inactive) | 20.2 µM | 24.7 µM | 15.5 µM |
| Cc1ccc(Sc2c(C(=O)Nc3ccc(F)cc3F)c(C(F)(F)F)nn2C)cc1 | > 100 µM (inactive) | > 100 µM | > 100 µM | > 100 µM |
| NC(=O)CC(NC(=O)Cc1ccc(Br)cc1)c1ccc(NC2CCCCCC2)c([N+](=O)[O-])c1 (stereo not drawn) | 72.9 µM (inactive) | > 100 µM | > 100 µM | > 100 µM |
| CC(C)CN(C(=O)CN1CCN(S(=O)(=O)c2ccccc2)CC1)c1c(N)n(CC(C)C)c(=O)[nH]c1=O | > 100 µM (inactive) | > 100 µM | > 100 µM | > 100 µM |
| CCN(CC)C(=O)COc1ccc(-c2nnc(Nc3ccc(OC)c(C(=O)NC)c3)c3ccccc23)cc1 | 68.8 µM (inactive) | 82.3 µM | > 100 µM | > 100 µM |
| BrC(=C\c1ccccc1)/C=N/N1CCN(c2ccccn2)CC1 | > 100 µM (inactive) | > 100 µM | > 100 µM | > 100 µM |
| COc1cc2nc(N3CCN(C(=O)OCc4ccccc4)[C@H](C(=O)NC(C)(C)C)C3)nc(N)c2cc1OC | 64.5 µM (inactive) | 65 µM | 92.7 µM | 84 µM |
| OCCCc1cn(-c2ccccc2)c2ccccc12 | 12.4 µM | > 100 µM | > 100 µM | 60.8 µM |
| N#Cc1c(-c2cccs2)cc(-c2ccccn2)nc1N | 6.92 µM | > 100 µM | > 100 µM | > 100 µM |

| Structure (SMILES) | IC50 | IC50 [1] | IC90 [2] | IC90 [3] |
| --- | --- | --- | --- | --- |
| COCCNC(=O)COc1ccc(Oc2ccccc2)cc1 | 49.5 µM (inactive) | > 100 µM | > 100 µM | > 100 µM |
| COc1ccc(N2C(=O)NC(=O)/C(=C\c3ccc([N+](=O)[O-])s3)C2=O)cc1 | 16.3 µM (inactive) | 22.9 µM | 25.7 µM | 21.3 µM |
| CCOC(=O)CNC(=O)c1cccnc1Oc1ccc(Cl)cc1 | 11.4 µM | 36.7 µM | > 100 µM | > 100 µM |
| Cc1nn(Cc2ccc(Cl)cc2)c(C)c1NC(=O)CSc1nc2c(c(C(F)(F)F)n1)CCc1ccccc1-2 | > 100 µM (inactive) | > 100 µM | > 100 µM | > 100 µM |
| C=CCSc1nccc(-c2nn(-c3ccc(C)cc3)ccc2=O)n1 | 94.1 µM (inactive) | > 100 µM | > 100 µM | > 100 µM |
| COc1ccc(CC2=C(O)c3ccccc3C(=O)C2=O)cc1 | 47.2 µM (inactive) | > 100 µM | > 100 µM | > 100 µM |
| COc1ccc(-c2c(C(F)(F)F)oc3cc(OCC(=O)Nc4ccccc4C(F)(F)F)ccc3c2=O)cc1OC | > 100 µM (inactive) | > 100 µM | > 100 µM | > 100 µM |
| N#Cc1c(C(F)(F)F)cc(-c2ccccc2)nc1SCC(=O)Nc1sc2c(c1C#N)CCC2 | > 100 µM (inactive) | > 100 µM | > 100 µM | > 100 µM |
| COc1ccc(/C=C/C(=O)NCC(=O)N/N=C/c2cc(Br)ccc2OCc2ccccc2)cc1 | > 100 µM (inactive) | > 100 µM | > 100 µM | > 100 µM |
| CC(=O)c1ccccc1OCCOc1ncnc2sccc12 | > 100 µM (inactive) | > 100 µM | > 100 µM | > 100 µM |
| CCN1C(=O)C(=Cc2ccc(N3CCOCC3)o2)C(=O)N(CC)C1=S | > 100 µM (inactive) | > 100 µM | > 100 µM | > 100 µM |
| Cc1ccc(C)c(NC(=O)c2cc(-c3cccnc3)nc3ccccc23)c1 | > 100 µM (inactive) | > 100 µM | > 100 µM | > 100 µM |
| COc1ccc(Cl)cc1NC(=O)CN(C)C(=O)c1ccc(N2CCCCCC2)c([N+](=O)[O-])c1 | > 100 µM (inactive) | > 100 µM | > 100 µM | > 100 µM |
| CN(C)c1ccc(S(=O)(=O)NCC(=O)OCC(=O)Nc2cccc(Cl)c2)cc1[N+](=O)[O-] | > 100 µM (inactive) | > 100 µM | > 100 µM | > 100 µM |
| CCCn1c2ccccc2c2nnc(SCC(=O)OCC)nc21 | 27.7 µM (inactive) | 29.1 µM | > 50 µM | > 100 µM |
| CCC(=O)NC(=S)Nc1ccc(-c2nc3ccccc3s2)cc1 | > 100 µM (inactive) | > 100 µM | > 100 µM | > 100 µM |
| CCOC(=O)C1CCN(c2ccc(C(N)=O)cc2[N+](=O)[O-])CC1 | 16.3 µM | 55.2 µM | > 100 µM | > 100 µM |
| COc1ccc2oc(C(=O)Nc3nc4ccccc4[nH]3)c(C)c2c1 | 1.7 µM | 36.9 µM | > 100 µM | > 100 µM |
| O=C(O)CSc1ncnc2c1sc1nc(-c3ccccc3)c3c(c12)CCC3 | 12.2 µM | 61.9 µM | 87.4 µM | 14.2 µM |
